Measurements published in ChEMBL document CHEMBL4406848, “Novel water soluble BODIPY compounds: Synthesis, photochemical, DNA interaction, topoisomerases inhibition and photodynamic activity properties” (Eur J Med Chem, 2019).
Active and inactive are the calls of the source. No cut-off for these calls is given here.

Tests used:
[1] = test system: HCT-116; assay: Cytotoxicity against human HCT116 cells assessed as cell viability at 0.5 uM incubated for 24 hrs in dark by MTT assay relative to control; assay type: functional; conditions: HCT-116, 24 h, read-out: Activity
[2] = test system: HCT-116; assay: Cytotoxicity against human HCT116 cells assessed as cell viability at 10 uM incubated for 24 hrs in dark by MTT assay relative to control; assay type: functional; conditions: HCT-116, 24 h, read-out: Activity
[3] = test system: HCT-116; assay: Phototoxicity against human HCT116 cells assessed as cell viability at 1 uM incubated for 24 hrs under 17.5 mW/cm2 light irradiation by MTT assay relative to control; assay type: functional; conditions: HCT-116, light or radiation study, read-out: Activity
[4] = test system: HCT-116; assay: Phototoxicity against human HCT116 cells assessed as cell viability at 50 uM incubated for 24 hrs under 17.5 mW/cm2 light irradiation by MTT assay relative to control; assay type: functional; conditions: HCT-116, light or radiation study, read-out: Activity
[5] = test system: Calf thymus DNA; assay: Competitive binding affinity to calf thymus DNA assessed as change in viscosity incubated for 10 mins by viscometer; assay type: nucleic-acid assay; conditions: Bos taurus
[6] = test system: HCT-116; assay: Cytotoxicity against human HCT116 cells assessed as cell viability at 5 uM incubated for 24 hrs in dark by MTT assay relative to control; assay type: functional; conditions: HCT-116, 24 h, read-out: Activity
[7] = biological target: T1, DNA topoisomerase II (Homo sapiens) (UniProt P11388+Q02880); assay: Inhibition of recombinant human topoisomerase 2 at 25 uM incubated for 1 hr by ethidium bromide staining based agarose gel electrophoresis method relative to control; assay type: protein assay
[8] = test system: HCT-116; assay: Phototoxicity against human HCT116 cells assessed as cell viability at 100 uM incubated for 24 hrs under 17.5 mW/cm2 light irradiation by MTT assay relative to control; assay type: functional; conditions: HCT-116, light or radiation study, read-out: Activity
[9] = test system: HCT-116; assay: Induction of apoptosis in human HCT116 cells assessed as early apoptotic cells at 10 uM incubated for 24 hrs in presence of irradiation by annexin V FITC and propidium iodide based flow cytometry (reference value: 3.4 %); assay type: functional
[10] = test system: HCT-116; assay: Phototoxicity against human HCT116 cells assessed as reduction in cell viability incubated for 24 hrs under 17.5 mW/cm2 light irradiation by MTT assay; assay type: functional, cell-based; conditions: HCT-116, light or radiation study
[11] = test system: HCT-116; assay: Cytotoxicity against human HCT116 cells assessed as cell viability at 1 uM incubated for 24 hrs in dark by MTT assay relative to control; assay type: functional; conditions: HCT-116, 24 h, read-out: Activity
[12] = test system: Calf thymus DNA; assay: Binding affinity to calf thymus DNA assessed as binding constant incubated for 10 mins by UV-visible spectrophotometry; assay type: nucleic-acid assay; conditions: Bos taurus
[13] = biological target: T1, DNA topoisomerase II (Homo sapiens); assay: Inhibition of recombinant human topoisomerase 2 at 12.5 uM incubated for 1 hr by ethidium bromide staining based agarose gel electrophoresis method relative to control; assay type: protein assay
[14] = test system: HCT-116; assay: Induction of apoptosis in human HCT116 cells assessed as necrotic cells at 10 uM incubated for 24 hrs in presence of irradiation by annexin V FITC and propidium iodide based flow cytometry (reference value: 0.2 %); assay type: functional
[15] = test system: HCT-116; assay: Induction of apoptosis in human HCT116 cells assessed as late apoptotic cells at 10 uM incubated for 24 hrs in presence of irradiation by annexin V FITC and propidium iodide based flow cytometry (reference value: 1.6 %); assay type: functional
[16] = biological target: T1, DNA topoisomerase II (Homo sapiens); assay: Inhibition of recombinant human topoisomerase 2 assessed as supercoiled DNA at 50 uM incubated for 1 hr by ethidium bromide staining based agarose gel electrophoresis method relative to control; assay type: protein assay; set-up: scale not given: the % may be the effect or the level left
[17] = test system: DNA; assay: Induction of Escherichia coli plasmid pBR322 DNA cleavage assessed as decrease in supercoiled DNA at 3.125 uM in presence of light irradiation and incubated for 1 hr by agarose gel electrophoresis relative to control; assay type: nucleic-acid assay; set-up: scale not given: the % may be the effect or the level left
[18] = Induction of singlet oxygen generation in DMSO solution assessed as singlet oxygen quantum yield by measuring reduction in DPBF irradiated with 650 nanometer laser light; assay type: functional
[19] = test system: HCT-116; assay: Phototoxicity against human HCT116 cells assessed as cell viability at 10 uM incubated for 24 hrs under 17.5 mW/cm2 light irradiation by MTT assay relative to control; assay type: functional; conditions: HCT-116, light or radiation study, read-out: Activity
[20] = test system: HCT-116; assay: Phototoxicity against human HCT116 cells assessed as cell viability at 5 uM incubated for 24 hrs under 17.5 mW/cm2 light irradiation by MTT assay relative to control; assay type: functional; conditions: HCT-116, light or radiation study, read-out: Activity
[21] = test system: DNA; assay: Induction of Escherichia coli plasmid pBR322 DNA cleavage at 3.125 to 25 uM incubated for 1 hr in dark by agarose gel electrophoresis; assay type: nucleic-acid assay
[22] = Induction of singlet oxygen generation in TBS solution assessed as singlet oxygen quantum yield by measuring reduction in ADMA irradiated with 650 nanometer laser light; assay type: functional
[23] = test system: HCT-116; assay: Cytotoxicity against human HCT116 cells assessed as cell viability at 0.5 and 1 uM incubated for 24 hrs in dark by MTT assay; assay type: functional, cell-based
[24] = biological target: T2, DNA topoisomerase 1 (Homo sapiens) (UniProt P11387); assay: Inhibition of recombinant human topoisomerase 1 at 50 uM incubated for 1 hr by ethidium bromide staining based agarose gel electrophoresis method relative to control
T2 sequence (whole entry): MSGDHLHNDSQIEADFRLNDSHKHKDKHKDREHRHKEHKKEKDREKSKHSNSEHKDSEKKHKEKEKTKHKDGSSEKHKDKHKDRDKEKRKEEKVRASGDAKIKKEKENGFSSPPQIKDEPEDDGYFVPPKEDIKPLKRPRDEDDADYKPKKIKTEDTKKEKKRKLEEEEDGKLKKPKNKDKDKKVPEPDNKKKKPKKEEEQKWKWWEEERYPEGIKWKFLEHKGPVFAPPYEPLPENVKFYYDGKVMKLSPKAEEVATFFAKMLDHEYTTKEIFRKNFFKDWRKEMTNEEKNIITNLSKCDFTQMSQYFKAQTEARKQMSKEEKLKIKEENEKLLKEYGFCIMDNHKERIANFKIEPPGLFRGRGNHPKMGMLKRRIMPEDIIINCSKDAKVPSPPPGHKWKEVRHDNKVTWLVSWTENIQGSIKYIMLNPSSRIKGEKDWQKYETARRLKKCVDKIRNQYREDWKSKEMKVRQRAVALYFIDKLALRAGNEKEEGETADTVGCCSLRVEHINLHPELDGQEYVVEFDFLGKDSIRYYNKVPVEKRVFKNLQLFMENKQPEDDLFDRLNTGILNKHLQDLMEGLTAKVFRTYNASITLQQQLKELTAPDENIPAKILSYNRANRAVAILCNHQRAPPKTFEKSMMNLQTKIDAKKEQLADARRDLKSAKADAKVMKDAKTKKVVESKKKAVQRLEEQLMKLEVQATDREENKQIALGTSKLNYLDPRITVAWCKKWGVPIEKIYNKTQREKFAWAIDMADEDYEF

[25] = test system: HCT-116; assay: Cytotoxicity against human HCT116 cells assessed as cell viability at 100 uM incubated for 24 hrs in dark by MTT assay relative to control; assay type: functional; conditions: HCT-116, 24 h, read-out: Activity
[26] = test system: Calf thymus DNA; assay: Binding affinity to calf thymus DNA assessed as percentage of hypochromicity incubated for 10 mins by UV-visible spectrophotometry; assay type: nucleic-acid assay; conditions: Bos taurus
[27] = test system: HCT-116; assay: Cytotoxicity against human HCT116 cells assessed as cell viability incubated for 24 hrs in dark by MTT assay; assay type: functional, cell-based; conditions: for IC50: HCT-116, 24 h
[28] = test system: HCT-116; assay: Induction of apoptosis in human HCT116 cells assessed as viable cells at 10 uM incubated for 24 hrs in presence of irradiation by annexin V FITC and propidium iodide based flow cytometry (reference value: 94.8 %); assay type: functional; conditions: HCT-116, light or radiation study, read-out: Activity
[29] = biological target: T1, DNA topoisomerase II (Homo sapiens); assay: Inhibition of recombinant human topoisomerase 2 at 50 uM incubated for 1 hr by ethidium bromide staining based agarose gel electrophoresis method relative to control; assay type: protein assay

Row | Structure (SMILES) | viability at 0.5 µM [1] [%] | viability at 10 µM [2] [%] | viability at 1 µM [3] [%] | viability at 50 µM [4] [%] | Activity [5] | viability at 5 µM [6] [%] | inhibition [7] [%] | viability at 100 µM [8] [%] | Activity [9] [%] | IC50 [10] [µM] | viability at 1 µM [11] [%] | Kb [12] | inhibition [13] [%] | Activity [14] [%] | Activity [15] [%] | Activity [16] [%] | Activity [17] [%] | Activity [18] | viability at 10 µM [19] [%] | viability at 5 µM [20] [%] | also measured
1 | CC1=CC(/C=C/c2ccc(OCCCc3ccc[n+](C)c3)cc2)=[N+]2C1=C(c1ccc(OCCCc3ccc[n+](C)c3)cc1)c1c(C)cc(/C=C/c3ccc(OCCCc4ccc[n+](C)c4)cc3)n1[B-]2(F)F.[I-].[I-].[I-] | 100 | 88 | 97 | 6 | Active | 91 | 54.6 | 0 | 54.4 | 3.95 | 100 | 1.87 ×10⁴ /M | 54.6 | 3.4 | 32.5 | 77.2 | 76.8 | 0.46 | 10 | 25 | Activity [21]: inactive; Activity [22]: 0.21; Activity [23]: inactive; inhibition [24]: 89%; viability at 100 µM [25]: 57%; Activity [26]: 47.8%; Activity [27]: Dose-dependent effect; IC50 [27]: > 100 µM; viability at 10 µM [28]: 9.6%; inhibition [29]: 56.2%
2 | CC1=CC(/C=C/c2ccc(OCCCc3ccc[n+](C)c3)c(OCCCc3ccc[n+](C)c3)c2)=[N+]2C1=C(c1ccc(OCCCc3ccc[n+](C)c3)c(OCCCc3ccc[n+](C)c3)c1)c1c(C)cc(/C=C/c3ccc(OCCCc4ccc[n+](C)c4)c(OCCCc4ccc[n+](C)c4)c3)n1[B-]2(F)F.[I-].[I-].[I-].[I-].[I-].[I-] | 100 | 96 | 100 | 85 | Active | 96 | 58.7 | 66 | 3.3 | > 100 | 100 | 1.59 ×10³ /M | 56.4 | 0.1 | 1 | 87.7 | 58.5 | 0.62 | 99 | 100 | Activity [21]: inactive; Activity [22]: 0.3; Activity [23]: inactive; inhibition [24]: 89.9%; viability at 100 µM [25]: 90%; Activity [26]: 46.7%; IC50 [27]: > 100 µM; viability at 10 µM [28]: 95.5%; inhibition [29]: 61.5%
